Read-outs that look alike come from different tables or passages of the source.
What was measured:
[1] = Bioelution in simulated gastric fluid; settings: for Bioelution of Co in gastric fluid (% release), 2 h / Bioelution of Co in gastric fluid / cobalt release (µg Co/g sample), 2 h: simulated gastric fluid pH 1.5, 2 h, 37°C
[2] = Bioelution in simulated intestinal fluid; settings: for Bioelution of Co in intestinal fluid (% release) / Bioelution of Co in intestinal fluid / cobalt release (µg Co/g sample): simulated intestinal fluid pH 7.4, 24 h
rats [3] = settings: oral, ref Domingo et al. (1984), cited from earlier work
rats [4] = test: Acute oral toxicity testing; format: in vivo, rat
[5] = Plasma toxicokinetic study; format: in vivo, rat; settings: for C max / K el / t 1/2 / Bioavailability (relative): 300 mg test item/kg PO; for Bioavailability (relative): vs CoCl2 IV
Crl:CD(SD) rats = test: Combined RDT study with reproduction/developmental toxicity screening test; format: in vivo, rat; settings: oral gavage
[6] = listed as Co Sulfate Heptahydrate

[O]=[Co][OH] [CoOOH, Cobalt oxyhydroxide]
Bioelution of Co in gastric fluid (% release), 2 h [1]: 0.85 % release | Bioelution of Co in gastric fluid / cobalt release (µg Co/g sample), 2 h ([1]; listed as Co Oxide Hydroxide): 4460 µg Co/g sample | Bioelution of Co in intestinal fluid (% release) [2]: 0.06 (24 h) % release | Bioelution of Co in intestinal fluid / cobalt release (µg Co/g sample) ([2]; listed as Co Oxide Hydroxide): 370 (24 h) µg Co/g sample

O.O.O.O.O.O.O.O=S(=O)([O-])[O-].[Co+2] [CoSO4, Cobalt sulfate heptahydrate]
Acute LD50 (mg Co/kg bw) (rats [3]): 65 mg Co/kg bw | Acute LD50 (mg substance/kg bw) (rats [3]): below 1000 mg substance/kg bw | Acute LD50 (mg substance/kg bw) (rats [3]; [6]): 310 [Domingo et al. (1984)] mg substance/kg bw | Bioelution of Co in gastric fluid (% release), 2 h [1]: 99.7 % release | Bioelution of Co in intestinal fluid (% release) [2]: 64 (24 h) % release | Bioelution of Co in intestinal fluid / cobalt release (µg Co/g sample) [2, 6]: 139 000 (24 h) µg Co/g sample

Cobalt sulfide [CoS]
Acute LD50 (mg Co/kg bw) (rats [4]; OECD 401 or 425): > 7124 mg Co/kg bw | Acute LD50 (mg substance/kg bw) (rats [4]; OECD 401 or 425): exceeding 11 000 mg substance/kg bw | Acute LD50 (mg substance/kg bw) (rats [4]; OECD 401 or 425, listed as Co Sulfide): > 11 000 mg substance/kg bw | C max ([5]; females): 2.01 ng/mL | K el ([5]; females): 0.0464 h⁻¹ | t 1/2 ([5]; females): 14.9 h | Bioavailability (relative) ([5]; females): 0.09 (relative) % | C max ([5]; males): 2.01 ng/mL | K el ([5]; males): 0.0413 h⁻¹ | t 1/2 ([5]; males): 16.8 h | Bioavailability (relative) ([5]; males): 0.08 (relative) % | Bioavailability calculated from AUC as % of CoCl2 IV AUC, average of m + f: relative bioavailability ([5]; oral, rats, average of males and females): Relative bioavailability 0.08% | oral bioavailability ([5]; single oral bolus, rats, males and females not distinguished): below 0.1% | premature deaths (Crl:CD(SD) rats; all doses): None of the exposed animals died prematurely | NOAEL (F0 generation) (Crl:CD(SD) rats; rats): 648 mg Co/kg bw/day | NOAEL (F1 generation) (Crl:CD(SD) rats; rats): > 648 mg Co/kg bw/day | NOAEL (reproductive toxicity) (Crl:CD(SD) rats; rats): > 648 mg Co/kg bw/day | solubility in gastric fluid ([1]; simulated gastric fluid pH 1.5): poorly soluble | Bioelution of Co in gastric fluid (% release), 2 h [1]: 0.58 % release | Bioelution of Co in gastric fluid / cobalt release (µg Co/g sample), 2 h ([1]; listed as Co Sulfide): 3820 µg Co/g sample | solubility in intestinal fluid ([2]; simulated intestinal fluid pH 7.4): poorly soluble | Bioelution of Co in intestinal fluid (% release) [2]: 0.33 (24 h) % release | Bioelution of Co in intestinal fluid / cobalt release (µg Co/g sample) ([2]; listed as Co Sulfide): 2180 (24 h) µg Co/g sample
